Earlier results in US20070123548A1, “Pth agonists” (priority 2004, published 2007).

Settings: daily subcutaneous injection for up to 2 years

CC[C@H](C)[C@H](NC(=O)[C@H](CCC(=O)O)NC(=O)[C@H](CO)NC(=O)[C@@H](NC(=O)[C@@H](N)CO)C(C)C)C(=O)N[C@@H](CCC(N)=O)C(=O)N[C@@H](CC(C)C)C(=O)N[C@@H](CCSC)C(=O)N[C@@H](Cc1cnc[nH]1)C(=O)N[C@@H](CC(N)=O)C(=O)N[C@@H](CC(C)C)C(=O)NCC(=O)N[C@@H](CCCCN)C(=O)N[C@@H](Cc1cnc[nH]1)C(=O)N[C@@H](CC(C)C)C(=O)N[C@@H](CC(N)=O)C(=O)N[C@@H](CO)C(=O)N[C@@H](CCSC)C(=O)N[C@@H](CCC(=O)O)C(=O)N[C@@H](CCCN=C(N)N)C(=O)N[C@H](C(=O)N[C@@H](CCC(=O)O)C(=O)N[C@@H](Cc1c[nH]c2ccccc12)C(=O)N[C@@H](CC(C)C)C(=O)N[C@@H](CCCN=C(N)N)C(=O)N[C@@H](CCCCN)C(=O)N[C@@H](CCCCN)C(=O)N[C@@H](CC(C)C)C(=O)N[C@@H](CCC(N)=O)C(=O)N[C@@H](CC(=O)O)C(=O)N[C@H](C(=O)N[C@@H](Cc1cnc[nH]1)C(=O)N[C@@H](CC(N)=O)C(=O)N[C@@H](Cc1ccccc1)C(=O)O)C(C)C)C(C)C [PTH(1-34)]
Reduction of fracture incidence at non-vertebral sites: 40%
Reduction of fracture incidence at the spine: 65%
